Laboratory results published in patent US20240002397A1, “3-AMINO PYRROLIDINE AND PIPERIDINE MACROCYCLIC OREXIN RECEPTOR AGONISTS” (Merck Sharp & Dohme LLC, priority 2020, published 2024).

molecular target: T1, human OX2R (Homo sapiens, UniProt O43614); assay: IPOne (IP-1) orexin receptor agonist assay in CHO cells expressing human OX2R; conditions: CHO, hOX2R IP-One; percentage of mean max effect of a reference compound at 1 uM with 100% activity
T1 sequence (O43614 1-444): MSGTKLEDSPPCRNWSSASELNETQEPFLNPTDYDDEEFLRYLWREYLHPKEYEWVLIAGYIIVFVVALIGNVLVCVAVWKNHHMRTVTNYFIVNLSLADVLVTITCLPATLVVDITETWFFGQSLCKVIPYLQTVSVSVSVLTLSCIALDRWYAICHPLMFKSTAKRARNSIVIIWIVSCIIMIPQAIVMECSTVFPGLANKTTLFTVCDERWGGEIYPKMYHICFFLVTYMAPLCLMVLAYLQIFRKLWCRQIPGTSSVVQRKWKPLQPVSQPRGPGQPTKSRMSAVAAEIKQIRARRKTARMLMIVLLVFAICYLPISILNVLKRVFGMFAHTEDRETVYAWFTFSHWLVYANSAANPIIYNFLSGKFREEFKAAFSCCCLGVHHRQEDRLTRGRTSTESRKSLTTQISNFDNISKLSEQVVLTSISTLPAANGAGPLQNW
Protocol: In atypical experiment, the OX1 and OX2 receptor agonist activity is determined in accordance with the following general experimental method. Chinese hamster ovary (CHO) cells expressing human OX1R and/or the human OX2R were grown in Iscove's modified DMEM containing glutaMAX™, 1% G418, 100 U/mL penicillin, 100 μg/mL streptomycin and 10% heat-inactivated qualified fetal bovine serum (FBS). […] During this incubation, IP-one detection reagents were prepared (38:1:1 lysis buffer:D2:AB-cryptate reagents).
For each compound, data were fit to a four parameter logistic fit (ActivityBase software) and the EC50 was reported as the inflection point of the resulting curve.

| Emax | SMILES |
| --- | --- |
| 102% | CS(=O)(=O)N[C@H]1CCCN2C(=O)/C=C/CCOc3cccc(c3)C3CCC(CC3)OC[C@@H]12 [Example 28, N-((2^1S,2^4S,5^2R,5^3S,E)-6-oxo-3,11-dioxa-5(2,1)-piperidina-1(1,3)-benzena-2(1,4)-cyclohexanacycloundecaphan-7-en-5^3-yl)methanesulfonamide] |
| 101% | CS(=O)(=O)N[C@H]1CCCN2C(=O)CCCCOc3cccc(c3)C3CCC(CC3)OC[C@@H]12 [Example 29, N-((2^1S,2^4S,5^2R,5^3S)-6-oxo-3,11-dioxa-5(2,1)-piperidina-1(1,3)-benzena-2(1,4)-cyclohexanacycloundecaphane-5^3-yl)methanesulfonamide] |
| 102% | C[C@@H]1C[C@H](NS(C)(=O)=O)C2CO[C@H]3CC=C(CC3)c3cc(F)cc(c3)OCCCOC(=O)N21 (stereo partly shown) [Example 41] |
| 102% | C[C@@H]1C[C@H](NS(C)(=O)=O)C2CO[C@H]3CC=C(CC3)c3cc(F)cc(c3)OCCCCC(=O)N21 (stereo partly shown) [Example 43, N-((2^1S,2^4S, 5^2R,5^3S,5^5R)-1^5-fluoro-5^5-methyl-6-oxo-3,11-dioxa-5(2,1)-pyrrolidina-1(1,3)-benzena-2(1,4)-cyclohexana-cyclounde-caphan-2^1-en-5^3-yl)methane-sulfonamide] |
| 102% | C[C@@H]1C[C@H](NS(C)(=O)=O)C2COC3CCC(CC3)c3cc(F)cc(c3)OCCCCC(=O)N21 (stereo partly shown) [Example 44, N-((2^1S,2^4S, 5^2R,5^3S,5^5R)-1^5-fluoro-5^5-methyl-6-oxo-3,11-dioxa-5(2,1)-pyrrolidina-1(1,3)-benzena-2(1,4)-cyclohexana-cyclounde-caphane-5^3-yl)methane-sulfonamide] |
| 101% | C[C@@H]1C[C@H](NS(C)(=O)=O)C2COC3CCC(CC3)c3cc(F)cc(c3F)OCCCOC(=O)N21 (stereo partly shown) [Example 48, N-((2^1S,2^4S, 5^2R,5^3S,5^5R)-1^2,1^5-difluoro-5^5-methyl-6-oxo-3,7,11-trioxa-5(2,1)-pyrrolidina-1(1,3)-benzena-2(1,4)-cyclohexana-cyclounde-caphane-5^3-yl)methane-sulfonamide] |
| 101% | C[C@@H]1C[C@H](NS(C)(=O)=O)C2COC3CCC(CC3)c3cc(cc(C(F)(F)F)c3)OCCCOC(=O)N21 (stereo partly shown) [Example 49, N-((2^1S,2^4S, 5^2R,5^3S,5^5R)-5^5-methyl-6-oxo-1^5-(trifluoro-methyl)-3,7,11-trioxa-5(2,1)-pyrrolidina-1(1,3)-benzena-2(1,4)-cyclohexana-cyclounde-caphane-5^3-yl)methane-sulfonamide] |

Continued, compound first:

| SMILES | Emax |
| --- | --- |
| C[C@@H]1C[C@H](NS(=O)(=O)N(C)C)[C@@H]2COC3CCC(CC3)c3cccc(c3)CCCCOC(=O)N12 [Example 22, N′-((2^1S,2^4S,5^2R,5^3S,5^5R)-5^5-methyl-6-oxo-3,7-dioxa-5(2,1)-pyrrolidina-1(1,3)-benzena-2(1,4)-cyclohexanacycloundecaphane-5^3-yl)-N,N-dimethysulfamide] | 102% |
| CN(C)S(=O)(=O)N[C@H]1CCN2C(=O)CCCCNc3cccc(c3)[C@H]3CC[C@H](CC3)OC[C@@H]12 [Example 23, N′-((2^1S,2^4S,5^2R,5^3S)-6-oxo-3-oxa-11-aza-5(2,1)-pyrrolidina-1(1,3)-benzena-2(1,4)-cyclohexanacycloundecaphane-5^3-yl)-N,N-dimethyl-sulfamide] | 102% |
| CS(=O)(=O)N[C@H]1CCCN2C(=O)CCCCOc3ccccc3[C@H]3CC[C@H](CC3)OC[C@@H]12 [Example 24, N-((2^1S,2^4S,5^2R,5^3S)-6-oxo-3,1′-dioxa-5(2,1)-piperidina-1(1,2)-benzena-2(1,4)-cyclohexanacycloundecaphane-5^3-yl)methanesulfonamide] | 99.2% |
| CN(C)S(=O)(=O)N[C@H]1CCCN2C(=O)OCCCOc3cccc(c3)C3CCC(CC3)OC[C@@H]12 [Example 25, N′-((2^1S,2^4S,5^2R,5^3S)-6-oxo-3,7,11-trioxa-5(2,1)-piperidina-1(1,3)-benzena-2(1,4)-cyclohexanacycloundecaphane-5^3-yl)-N,N-dimethyl-sulfamide] | 101% |
| CN(C)S(=O)(=O)N[C@H]1CCCN2C(=O)OCCCCOc3cccc(c3)C3CCC(CC3)OC[C@@H]12 [Example 26, N′-((2^1S,2^4S,5^2R,5^3S)-6-oxo-3,7,12-trioxa-5(2,1)-piperidina-1(1,3)-benzena-2(1,4)-cyclohexanacyclododecaphane-5^3-yl)-N,N-dimethy-sulfamide] | 94.1% |
| CN(C)S(=O)(=O)N[C@@H]1CCCN2C(=O)OCCCCOc3cccc(c3)C3CCC(CC3)OC[C@H]12 [Example 27, N′-((2^1R,2^4R,5^2S,5^3R)-6-oxo-3,7,12-trioxa-5(2,1)-piperidina-1(1,3)-benzena-2(1,4)-cyclohexanacyclododecaphane-5^3-yl)-N,N-dimethyl-sulfamide] | 4.1% |
| C[C@@H]1C[C@H](NS(C)(=O)=O)C2COC3CCC(CC3)c3cc(F)cc(c3)OCCCOC(=O)N21 (stereo partly shown) [Example 42, N-((2^1S,2^4S, 5^2R,5^3S,5^5R)-1^5-fluoro-5^5-methyl-6-oxo-3,7,11-trioxa-5(2,1)-pyrrolidina-1(1,3)-benzena-2(1,4)-cyclohexana-cyclounde-caphane-5^3-yl)methane-sulfonamide] | 102% |
| C[C@@H]1C[C@H](NS(C)(=O)=O)C2COC3CCC(CC3)c3ccc(C#N)c(c3)OCCCOC(=O)N21 (stereo partly shown) [Example 45, N-((2^1S,2^4S, 5^2R,5^3S,5^5R)-1^4-cyano-5^5-methyl-6-oxo-3,7,11-trioxa-5(2,1)-pyrrolidina-1(1,3)-benzena-2(1,4)-cyclohexana-cyclounde-caphane-5^3-yl)methane-sulfonamide] | 103% |
| C[C@@H]1C[C@H](NS(C)(=O)=O)C2CO[C@H]3CC=C(CC3)c3cccc(c3F)OCCCOC(=O)N21 (stereo partly shown) [Example 46, N-((2^1S,2^4S, 5^2R,5^3S,5^5R)-1^2-fluoro-5^5-methyl-6-oxo-3,7,11-trioxa-5(2,1)-pyrrolidina-1(1,3)-benzena-2(1,4)-cyclohexana-cyclounde-caphan-2^1-en-5^3-yl)methane-sulfonamide] | 102% |
| C[C@@H]1C[C@H](NS(C)(=O)=O)C2COC3CCC(CC3)c3cccc(c3F)OCCCOC(=O)N21 (stereo partly shown) [Example 47, N-((2^1S,2^4S, 5^2R,5^3S,5^5R)-1^2-fluoro-5^5-methyl-6-oxo-3,7,11-trioxa-5(2,1)-pyrrolidina-1(1,3)-benzena-2(1,4)-cyclohexana-cyclounde-caphane-5^3-yl)methane-sulfonamide] | 102% |
| C[C@@H]1C[C@H](NS(C)(=O)=O)C2COC3CCC(CC3)c3cc(ccc3OC(F)(F)F)OCCCOC(=O)N21 (stereo partly shown) [Example 50, N-((2^1S,2^4S, 5^2R,5^3S,5^5R)-5^5-methyl-6-oxo-1^6-(trifluoro-methoxy)-3,7,11-trioxa-5(2,1)-pyrrolidina-1(1,3)-benzena-2(1,4)-cyclohexana-cyclounde-caphane-5^3-yl)methane-sulfonamide] | 101% |

same assay, conditions: hOX2R IP-One; percentage of mean max effect of a reference compound at 1 uM with 100% activity

| Emax (%) | SMILES |
| --- | --- |
| −3.9% | CS(=O)(=O)NC1CCCN2C(=O)CCCOc3cccc(c3)C3CCC(C3)OCC12 (stereo not shown) [Example 33, N-((2^1S,2^3R,5^2R,5^3S)-6-oxo-3,10-dioxa-5(2,1)-piperidina-1(1,3)-benzena-2(1,3)-cyclopentanacyclodecaphane-5^3-yl)methanesulfonamide] |
